# Assays:
# [1] = tested on: lung chloromas (MIA C51 clone); assay: Lung chloroma rat model, survival; assay type: in vivo, rats; conditions: continuous infusion vs injection 3 times a day, 50 mg/kg per day
# From the text: The effect of dosing schedule of coenzyme Q10 was also investigated in rats bearing liver or lung chloromas. Rats were transplanted with liver or lung clones of malignant chloromas derived from a stable myelogenous leukemia (chloroleukemia) cell line, MIA C51 (see. e.g., Jimenez and Yunis (1987) Science 238: 1278-1280). The clones have been selected to home to and form tumors in the liver or lungs, respectively. Rats were randomized to receive either no treatment, injection 3 times a day with 40 mg/mL (4%) coenzyme Q10, or continuous infusion of 40 mg/mL (4%) coenzyme Q10 via an implanted pump, to deliver for each regimen a total dose of 50 mg/kg body weight per day. […] For example, at Day 189 in the liver chloroma model, 45 of 50 rats were alive in the continuous infusion treatment group compared with 26 of 50 rats alive in the injection treatment group. All control animals were dead at Day 30.
# [2] = tested on: cancer cell lines HT-29, A549, Hep3B, MDA-MB231, SkBr-3, MCF7, MiaPaCa-2, SKOV-3, PC-3; assay: Cancer cell line viability in vitro; assay type: cell-based; conditions: 100 μM coenzyme Q10; evident as early as 24 hours, increased progressively between 48 and 72 hours; all cell lines tested
# Method: Various cancer cell lines were treated with coenzyme Q10 at 100 μM concentration to determine the effect on cancer cell viability. The cancer cell lines tested were HT-29 (colon), A549 (lung), Hep3B (liver), MDA-MB231 (breast), SkBr-3 (breast), MCF7 (breast), MiaPaCa-2 (pancreas), SKOV-3 (ovary), and PC-3 (prostate). Cell viability was measured between 24 and 72 hours. […] For example. […] The text at the bottom of the graph in FIG. 6 represents the gene mutation and mutation rate for each cell line. For example, the HT-29 cell line contains the APC mutation with a mutation rate of 126.
# solid tumors = assay: Phase 1 study, 144-hour (6 day) continuous infusion; assay type: in vivo, human; conditions: monotherapy and combination therapy
# Method: A phase 1 clinical trial evaluating a 144-hour (6 day) continuous infusion of coenzyme Q10 for treatment of solid tumors is earned out. Coenzyme Q10 is administered as a monotherapy (Arm 1) or in combination with chemotherapy (Arm 2). […] The study is an open label, non-randomized dose-escalation study. The estimated enrollment is 45 patients for monotherapy (Arm 1), and up to 120 patients for combination therapy (Arm 2).
# A dosing schedule of two 72-hour doses is used. For the first 72-hour dose, a loading dose over 1 hour is followed by infusion of the remainder of the dose over 71 hours at a lower rate. […]
# A phase 1 clinical trial for treatment of solid tumors using coenzyme Q10 monotherapy and coenzyme Q10 in combination with chemotherapy is carried out. […] Dose limiting toxicities are assessed during Cycle 1.
# Assessments of the antitumor activity of coenzyme Q10 are performed at the end of Cycle 2 and every 2 cycles thereafter using standard techniques such as computerized tomography (CT) or magnetic resonance imaging (MRI) for patients with measurable disease. Response is evaluated using Response Evaluation Criteria in Solid Tumors (RECIST) v1.1. […] Once a dose level of coenzyme Q10 monotherapy is evaluated and the CRC determines it safe to escalate to the next dose level, Cohort 1 of Treatment Arm 2 of coenzyme Q10 in combination with chemotherapy opens to accrual. […]
substance,measurement,setting,value
coenzyme Q10,effectiveness of continuous infusion regimen,[1],much more effective than the injection regimen
same,cell viability,[2],decrease in cell viability
same,clinical and/or radiographic responses,solid tumors; at least some patients,Clinical and/or radiographic responses are seen
same,safety and tolerability,solid tumors; six day continuous infusion,safe and well tolerated

# Reference: patent publication US12653776B2, “Methods of treatment of cancer by continuous infusion of coenzyme Q10” (priority 2013, dated 2026)
